These results are taken from patent publication US11266715B2, “C3A receptor agonists for use against ischemic brain injury, stroke, traumatic brain injury, spinal cord injury and neurodegenerative disorders” (priority 2016, dated 2022).

One data set deals with GAP-43+ puncta. As to the kind of experiment: GAP-43 immunostaining of cortex 21 days after stroke. The format is in vivo, mouse. The procedure: For immunofluorescent evaluation, sections were deparaffinized, heated three times for 5 min in a microwave oven in 0.01 M citric buffer (pH 6.0), and blocked in PBS containing 0.05% Tween-20 (Sigma) and 1% in Bovine serum albumin (BSA, Sigma) for GAP-43 and synapsin I staining, 3% normal goat serum for VGLUT1 staining or 4% normal donkey serum for GAP-43 double stainings. Goat anti-synapsin la/b antibody (1:150; Santa Cruz, sc-7379) was followed by biotin-conjugated donkey anti-goat immunoglobulin (Ig) secondary antibody (1:200; Jackson Research Lab, 705-065-147) and Cy3-conjugated streptavidin (1:100; Sigma). Guinea pig anti-VGLUT1 (1:500; Millipore, AB5905) was followed by Alexa Fluor 488 goat anti-guinea pig Ig (1:500; Molecular Probes, A11073). For single staining, mouse anti-GAP-43 antibody (1:1000; Millipore, MAB347), was followed by biotinylated rabbit anti-mouse Ig secondary antibody (1:200; Dako, E0354) and Cy3-conjugated streptavidin (1:100; Sigma). […]
Highest signal intensity single plane images of immunostained sections were obtained by laser scanning confocal microscope (LSM TCS SP2, Leica Microsystems, ×63/NA 1.3 objective for synapsin I and GAP-43; and LSM 700, Carl Zeiss for VGLUT1 ×40/NA 1.3) at 1024×1024 pixels resolution. […] Three standard sections per animal in 160 μm intervals were analysed. […]
Single-stained images were analysed using MetaMorph® software (Molecular Devices, ver. 2.8.5) to obtain number, average size and intensity of positive punctuate structures per image. […] An experimenter blinded to experimental group performed all image acquisitions and quantifications.

The test system of data set [1] is cultured primary astrocytes. Particulars: cited from earlier work.
The subject of data set [2] is adult mice with global cerebral ischemia. Particulars: single intraventricular injection of C3a 30 min prior to training, assessed 24 h later; cited from earlier work.
A further data set deals with microglia and astrocytes. Particulars: in vitro; cited from earlier work.
A further data set has as its system serum carboxypeptidases. Particulars: systemically administered C3a; cited from earlier work.

As for “C3a: Purified human C3a peptide (Complement Technologies), C3a receptor agonist, amino acid sequence SEQ ID NO: 1”, the “increase in density of GAP-43+ puncta, ipsilesional motor cortex vs corresponding contralesional region” value in the data set on GAP-43+ puncta (C3a-treated mice, P=0.012) is ~50%. In the data set with GAP-43+ puncta (P=0.015), the “increase in density of GAP-43+ puncta, ipsilesional motor cortex vs ipsilesional cortex of PBS-treated mice” value was ~50%. Further, the “average size of GAP-43+ puncta” value with GAP-43+ puncta (between experimental groups) was “did not differ between the experimental groups”. Besides, in data set [1] (cultured primary astrocytes, C3aR-dependent), the “ischemia-induced upregulation of GFAP” value was “attenuated ischemia-induced upregulation of GFAP”. In addition, the survival of astrocytes result in data set [1] (in vitro ischemia model) is “increased the survival of astrocytes”. Besides, the “amnesia induced by global cerebral ischemia” value in data set [2] is on record as “ameliorate amnesia”. Also, in the data set on microglia and astrocytes, the NGF expression entry is recorded as “induces upregulation of neural growth factor (NGF)”. Further, the stability in serum result in the data set on serum carboxypeptidases is “rapid inactivation by serum carboxypeptidases”.
